System: stable U20S reporter cells harboring Per2-dLuc
Test: Per2 assay for evaluating the potency of test compounds (circadian luciferase reporter)
Format: cell-based
Conditions: amplitude of Per2-dLuc luminescence vs log concentration
Experimental: Compounds were screened by using a high-throughput circadian assay system as previously described in Zhang, E. E. et al. Cell, 2009, 139, 199-210. In brief, stable U20S reporter cells harboring Per2-dLuc were plated at a density of 30,000 cells/well in Corning 96-well, solid white, flat bottom, TC-treated microplates (Corning®), and incubated for 48 hours at 37° C. in the presence of 5% CO2 in a medium of Dulbecco's Modified Eagle Medium (DMEM) supplemented with 10% fetal bovine serum (FBS) and penicillin (100 units/mL)-streptomycin (100 μg/mL). […] DMSO stocks are then serially diluted in DMSO, typically diluting 3-fold for each dilution step. Following the 48 h period, cell culture medium is removed from plated cells and cells are synchronized with 200 μL/well of complete cell culture medium (described above), supplemented with 5 μM forskolin (Tocris®) and 1 mM beetle luciferin (Promega®). Immediately following synchronization, 1 μL of compound dilution is added to each well. Plates are sealed, shaken briefly, and gene expression was monitored by measuring luminescence (Tecan® Infinite M200 or Tecan® Infinite M200 Pro) continuously for a minimum of 3 days at 35° C. Raw luminescence data (counts) are first analyzed using Multicycle™ software (Actimetrics, Inc.) to determine the amplitude (amp), period, and phase (phz) for each compound concentration. The period length for control wells (i.e. no compound, DMSO only) should be 26-30 h. Amp data are then plotted against the logarithm compound concentration (M) and analyzed by nonlinear regression analysis to determine the EC50.

Q: With `CC1CCN(CC(O)Cn2c3ccc(F)cc3c3cc(F)ccc32)C(=O)C1` (stereo not shown) [Compound 49, 1-(3-(3,6-difluoro-9H-carbazol-9-yl)-2-hydroxypropyl)-4-methylpiperidin-2-one] as the molecule, how does the EC50 read?
A: 137 nM

Q: How did the EC50 turn out when `CC(C)C1CCCN(CC(O)Cn2c3ccc(F)cc3c3cc(F)ccc32)C1=O` (stereo not shown) [Compound 25, 1-(3-(3,6-difluoro-9H-carbazol-9-yl)-2-hydroxypropyl)-3-isopropylpiperidin-2-one] was run?
A: 79 nM

Q: For `O=C1C(C2CCCC2)CCCN1CC(O)Cn1c2ccc(F)cc2c2cc(F)ccc21` (stereo not shown) [Compound 23, 3-cyclopentyl-1-(3-(3,6-difluoro-9H-carbazol-9-yl)-2-hydroxypropyl)piperidin-2-one], which EC50 is on record?
A: 399 nM

Q: For `C[C@@H]1CCC(=O)N1C[C@H](O)Cn1c2ccc(F)cc2c2cc(F)ccc21` [Compound 109, (R)-1-((R)-3-(3,6-difluoro-9H-carbazol-9-yl)-2-hydroxypropyl)-5-methylpyrrolidin-2-one], which EC50 is on record?
A: 226 nM

Q: For `O=C1C(c2ccccc2)CCCN1CC(O)Cn1c2ccc(F)cc2c2cc(F)ccc21` (stereo not shown) [Compound 19, 1-(3-(3,6-difluoro-9H-carbazol-9-yl)-2-hydroxypropyl)-3-phenylpiperidin-2-one], which EC50 is on record?
A: 547 nM

Q: `CC1CN(CC(O)Cn2c3ccc(F)cc3c3cc(F)ccc32)C(=O)N1` (stereo not shown) [Compound 85, 1-(3-(3,6-difluoro-9H-carbazol-9-yl)-2-hydroxypropyl)-4-methylimidazolidin-2-one] was tested. Which EC50 did it give?
A: 667 nM

Q: How did the EC50 turn out when `CC(C)N1CCCN(CC(C)(O)Cn2c3ccc(F)cc3c3cc(F)ccc32)C1=O` (stereo not shown) [Compound 80, 1-(3-(3,6-difluoro-9H-carbazol-9-yl)-2-hydroxy-2-methylpropyl)-3-isopropyltetrahydropyrimidin-2(1H)-one] was run?
A: 1100 nM

Q: With `CC1CCN(CC(O)Cn2c3ccc(F)cc3c3cc(F)ccc32)C(=O)N1C` (stereo not shown) [Compound 101, 1-(3-(3,6-difluoro-9H-carbazol-9-yl)-2-hydroxypropyl)-3,4-dimethyltetrahydropyrimidin-2(1H)-one] as the molecule, how does the EC50 read?
A: 417 nM

Q: With `O=C1N(CC(O)Cn2c3ccc(F)cc3c3cc(F)ccc32)CCCN1C1CCCC1` (stereo not shown) [Compound 76, 1-cyclopentyl-3-(3-(3,6-difluoro-9H-carbazol-9-yl)-2-hydroxypropyl)tetrahydropyrimidin-2(1H)-one] as the molecule, how does the EC50 read?
A: 609 nM

Q: How did the EC50 turn out when `O=C1N(CC(O)Cn2c3ccccc3c3ccccc32)CCN1C1CC1` (stereo not shown) [Compound 97, 1-(3-(9H-carbazol-9-yl)-2-hydroxypropyl)-3-cyclopropylimidazolidin-2-one] was run?
A: 315 nM

Q: `C[C@@](O)(CN1CC[C@H](F)C1=O)Cn1c2ccccc2c2ccccc21` [Compound 124, (S)-1-((S)-3-(9H-carbazol-9-yl)-2-hydroxy-2-methylpropyl)-3-fluoropyrrolidin-2-one] was tested. Which EC50 did it give?
A: 309 nM

Q: Which EC50 does the source give for `O=C1N(CC(O)Cn2c3ccc(F)cc3c3cc(F)ccc32)CCCN1C1CCC1` (stereo not shown) [Compound 78, 1-cyclobutyl-3-(3-(3,6-difluoro-9H-carbazol-9-yl)-2-hydroxypropyl)tetrahydropyrimidin-2(1H)-one] here?
A: 440 nM

Q: Which EC50 does the source give for `CCN1CCCN(CC(O)Cn2c3ccc(F)cc3c3cc(F)ccc32)C1=O` (stereo not shown) [Compound 86, 1-(3-(3,6-difluoro-9H-carbazol-9-yl)-2-hydroxypropyl)-3-ethyltetrahydropyrimidin-2(1H)-one] here?
A: 497 nM

Q: Which EC50 does the source give for `CC1CC(=O)N(CC(O)Cn2c3ccc(F)cc3c3cc(F)ccc32)C1C` (stereo not shown) [Compound 47, 1-(3-(3,6-difluoro-9H-carbazol-9-yl)-2-hydroxypropyl)-4,5-dimethylpyrrolidin-2-one] here?
A: 299 nM

Q: Which EC50 does the source give for `C[C@H]1CN(C[C@H](O)Cn2c3ccc(F)cc3c3cc(F)ccc32)C(=O)N1` [Compound 135, (S)-1-((R)-3-(3,6-difluoro-9H-carbazol-9-yl)-2-hydroxypropyl)-4-methylimidazolidin-2-one] here?
A: 1130 nM

Q: `O=C1N(CC(O)Cn2c3ccc(F)cc3c3cc(F)ccc32)CCCN1C1CC1` (stereo not shown) [Compound 83, 1-cyclopropyl-3-(3-(3,6-difluoro-9H-carbazol-9-yl)-2-hydroxypropyl)tetrahydropyrimidin-2(1H)-one] was tested. Which EC50 did it give?
A: 147 nM

Q: With `C[C@@H]1CCC(=O)N(C[C@@H](O)Cn2c3ccccc3c3ccccc32)C1` [Compound 133, (R)-1-((S)-3-(9H-carbazol-9-yl)-2-hydroxypropyl)-5-methylpiperidin-2-one] as the molecule, how does the EC50 read?
A: 838 nM

Q: With `C[C@H]1CCN(C[C@H](O)Cn2c3ccccc3c3ccccc32)C1=O` [Compound 117, (S)-1-((R)-3-(9H-carbazol-9-yl)-2-hydroxypropyl)-3-methylpyrrolidin-2-one] as the molecule, how does the EC50 read?
A: 188 nM

Q: `CCC1CCCN(CC(O)Cn2c3ccc(F)cc3c3cc(F)ccc32)C1=O` (stereo not shown) [Compound 24, 1-(3-(3,6-difluoro-9H-carbazol-9-yl)-2-hydroxypropyl)-3-ethylpiperidin-2-one] was tested. Which EC50 did it give?
A: 332 nM

Q: How did the EC50 turn out when `C[C@H]1CN(C[C@H](O)Cn2c3ccccc3c3ccccc32)C(=O)N1` [Compound 137, (S)-1-((R)-3-(9H-carbaxol-9-yl)-2-hydroxypropyl)-4-methylimidazolidin-2-one] was run?
A: 766 nM

Q: For `CC(O)(CN1CCOCC1=O)Cn1c2ccc(F)cc2c2cc(F)ccc21` (stereo not shown) [Compound 56, 4-(3-(3,6-difluoro-9H-carbazol-9-yl)-2-hydroxy-2-methylpropyl)morpholin-3-one], which EC50 is on record?
A: 1060 nM

Q: For `CC1CCCC(=O)N1CC(O)Cn1c2ccccc2c2ccccc21` (stereo not shown) [Compound 63, 1-(3-(9H-carbazol-9-yl)-2-hydroxypropyl)-6-methylpiperidin-2-one], which EC50 is on record?
A: 541 nM

Q: With `CC1CN(C)C(=O)N(CC(O)Cn2c3ccc(F)cc3c3cc(F)ccc32)C1` (stereo not shown) [Compound 94, 1-(3-(3,6-difluoro-9H-carbazol-9-yl)-2-hydroxypropyl)-3,5-dimethyltetrahydropyrimidin-2(1H)-one] as the molecule, how does the EC50 read?
A: 833 nM

Q: How did the EC50 turn out when `CC1CCN(CC(O)Cn2c3ccccc3c3ccccc32)C(=O)C1` (stereo not shown) [Compound 61, 2-(3-(9H-carbazol-9-yl)-2-hydroxypropyl)-4-methylpiperidin-2-one] was run?
A: 710 nM

Q: `O=C1CCCN1CC(O)Cn1c2ccc(F)cc2c2cc(F)ccc21` (stereo not shown) [Compound 7, 1-(3-(3,6-difluoro-9H-carbazol-9-yl)-2-hydroxypropyl)pyrrolidin-2-one] was tested. Which EC50 did it give?
A: 625 nM

Q: Which EC50 does the source give for `CC1CC(=O)N(CC(O)Cn2c3ccc(F)cc3c3cc(F)ccc32)C1` (stereo not shown) [Compound 43, 1-(3-(3,6-difluoro-9H-carbazol-9-yl)-2-hydroxypropyl)-4-methylpyrrolidin-2-one] here?
A: 1030 nM

Q: `CC1(C)CC(=O)N(CC(O)Cn2c3ccc(F)cc3c3cc(F)ccc32)C1` (stereo not shown) [Compound 31, 1-(3-(3,6-difluoro-9H-carbazol-9-yl)-2-hydroxypropyl)-4,4-dimethylpyrrolidin-2-one] was tested. Which EC50 did it give?
A: 832 nM

Q: How did the EC50 turn out when `O=C1[C@H](F)CCN1C[C@H](O)Cn1c2ccccc2c2ccccc21` [Compound 121, (R)-1-((R)-3-(9H-carbazol-9-yl)-2-hydroxypropyl)-3-fluoropyrrolidin-2-one] was run?
A: 210 nM

Q: With `O=C1N(CC(O)Cn2c3ccc(F)cc3c3cc(F)ccc32)CCC1(F)F` (stereo not shown) [Compound 58, 1-(3-(3,6-difluoro-9H-carbazol-9-yl)-2-hydroxypropyl)-3,3-difluoropyrrolidin-2-one] as the molecule, how does the EC50 read?
A: 716 nM

Q: For `O=C1CC(C2CC2)CN1CC(O)Cn1c2ccccc2c2ccccc21` (stereo not shown) [Compound 65, 1-(3-(9H-carbazol-9-yl)-2-hydroxypropyl)-4-cyclopropylpyrrolidin-2-one], which EC50 is on record?
A: 1030 nM

Q: How did the EC50 turn out when `O=C1NCCCN1CC(O)Cn1c2ccccc2c2ccccc21` (stereo not shown) [Compound 3, 1-(3-(9H-carbazol-9-yl)-2-hydroxypropyl)tetrahydropyrimidin-2(1H)-one] was run?
A: 299 nM
